Patent US20250017940A1, “SELECTIVE PEPTIDOMIMETIC MODULATORS OF CAV2.2 (N-TYPE) VOLTAGE-GATED CALCIUM CHANNELS AND USES THEREOF” (New York University, priority 2023, published 2025)

Assays:
[1] = system: CRMP2; assay: Immunoblot of CRMP2 phosphorylation in CAD cells; assay type: cell-based, mouse; conditions: overnight incubation of CBD3063 (20 µM)
Experimental: Mouse neuron derived Cathecholamine A differentiated CAD cells (ECACC Cat #08100805, RRID: CVCL_0199) were grown in standard cell culture conditions, 37° C. in 5% (vol/vol) CO2. The cells were maintained in DMEM/F12 media supplemented with 10% (vol/vol) FBS (HyClone) and 1% penicillin/streptomycin sulfate from 10,000 μg/mL stock.
Indicated samples were loaded on 4-20% Novex gels (cat. no. XP04205BOX; Thermo Fisher Scientific, Waltham, MA). Proteins were transferred to preactivated PVDF membranes for 1 hour at 100 V using TGS [25 mM Tris, pH 8.5, 192 mM glycine, 0.1% (mass/vol) SDS], 20% (vol/vol) methanol as transfer buffer (0.45 μm; Cat #IPVH00010; Millipore Sigma, St. Louis, MO). After transfer, the membranes were blocked at room temperature for 1 hour with TBST (50 mM Tris·HCl, pH 7.4, 150 mM NaCl, 0.1% Tween 20) with 5% (mass/vol) nonfat dry milk, and then incubated overnight at 4° C. separately with indicated primary antibodies, β111-Tubulin (Cat #G7121; Promega, Madison, WI), CRMP2 (Cat #C2993; Sigma-Aldrich, St. Louis, MO), Cav2.2 (Cat #TA308673; Origene, Rockville, MD), CRMP2 pSer522 (Cat #CP2191; ECM Biosciences, Versailles, KY), and CRMP2 pThr514 (Cat #PA5-110113; Invitrogen, Waltham, MA), in TBST, 5% (mass/vol) BSA. For examining the effect of CBD3063 on CRMP2 phosphorylation state, CAD cells were treated overnight with vehicle (0.1% DMSO) or CBD3063 (20 μM) and the next day cells were lysed using RIPA buffer. Approximately 40 μg of total proteins were loaded on an SDS-PAGE and then transferred to polyvinylidene difluoride membranes and blocked at room temperature for 1 hour. Primary antibodies used for probing were CRMP2 (Cat #C2993, Sigma-Aldrich, St Louis, MO), CRMP2 pThr514 (Cat #PB-043, Kinasource, Dundee, Scotland, United Kingdom), CRMP2 pSer522 (Cat #CP2191, ECM Biosciences, Versailles, KY), and CRMP2 pT555 (Cat #CP2251, ECM Biosciences, Versailles, KY).

[2] = biological target: T1, Cav2.3 (R-type) calcium channels (Rattus norvegicus, UniProt Q07652); assay: Whole-cell patch-clamp, isolated R-type Ca2+ currents in DRG neurons; assay type: cell-based
T1 construct: Recordings were obtained from acutely dissociated DRG neurons; endogenous in cells; host or cells: acutely dissociated rat DRG neurons
T1 sequence (Q07652 whole entry): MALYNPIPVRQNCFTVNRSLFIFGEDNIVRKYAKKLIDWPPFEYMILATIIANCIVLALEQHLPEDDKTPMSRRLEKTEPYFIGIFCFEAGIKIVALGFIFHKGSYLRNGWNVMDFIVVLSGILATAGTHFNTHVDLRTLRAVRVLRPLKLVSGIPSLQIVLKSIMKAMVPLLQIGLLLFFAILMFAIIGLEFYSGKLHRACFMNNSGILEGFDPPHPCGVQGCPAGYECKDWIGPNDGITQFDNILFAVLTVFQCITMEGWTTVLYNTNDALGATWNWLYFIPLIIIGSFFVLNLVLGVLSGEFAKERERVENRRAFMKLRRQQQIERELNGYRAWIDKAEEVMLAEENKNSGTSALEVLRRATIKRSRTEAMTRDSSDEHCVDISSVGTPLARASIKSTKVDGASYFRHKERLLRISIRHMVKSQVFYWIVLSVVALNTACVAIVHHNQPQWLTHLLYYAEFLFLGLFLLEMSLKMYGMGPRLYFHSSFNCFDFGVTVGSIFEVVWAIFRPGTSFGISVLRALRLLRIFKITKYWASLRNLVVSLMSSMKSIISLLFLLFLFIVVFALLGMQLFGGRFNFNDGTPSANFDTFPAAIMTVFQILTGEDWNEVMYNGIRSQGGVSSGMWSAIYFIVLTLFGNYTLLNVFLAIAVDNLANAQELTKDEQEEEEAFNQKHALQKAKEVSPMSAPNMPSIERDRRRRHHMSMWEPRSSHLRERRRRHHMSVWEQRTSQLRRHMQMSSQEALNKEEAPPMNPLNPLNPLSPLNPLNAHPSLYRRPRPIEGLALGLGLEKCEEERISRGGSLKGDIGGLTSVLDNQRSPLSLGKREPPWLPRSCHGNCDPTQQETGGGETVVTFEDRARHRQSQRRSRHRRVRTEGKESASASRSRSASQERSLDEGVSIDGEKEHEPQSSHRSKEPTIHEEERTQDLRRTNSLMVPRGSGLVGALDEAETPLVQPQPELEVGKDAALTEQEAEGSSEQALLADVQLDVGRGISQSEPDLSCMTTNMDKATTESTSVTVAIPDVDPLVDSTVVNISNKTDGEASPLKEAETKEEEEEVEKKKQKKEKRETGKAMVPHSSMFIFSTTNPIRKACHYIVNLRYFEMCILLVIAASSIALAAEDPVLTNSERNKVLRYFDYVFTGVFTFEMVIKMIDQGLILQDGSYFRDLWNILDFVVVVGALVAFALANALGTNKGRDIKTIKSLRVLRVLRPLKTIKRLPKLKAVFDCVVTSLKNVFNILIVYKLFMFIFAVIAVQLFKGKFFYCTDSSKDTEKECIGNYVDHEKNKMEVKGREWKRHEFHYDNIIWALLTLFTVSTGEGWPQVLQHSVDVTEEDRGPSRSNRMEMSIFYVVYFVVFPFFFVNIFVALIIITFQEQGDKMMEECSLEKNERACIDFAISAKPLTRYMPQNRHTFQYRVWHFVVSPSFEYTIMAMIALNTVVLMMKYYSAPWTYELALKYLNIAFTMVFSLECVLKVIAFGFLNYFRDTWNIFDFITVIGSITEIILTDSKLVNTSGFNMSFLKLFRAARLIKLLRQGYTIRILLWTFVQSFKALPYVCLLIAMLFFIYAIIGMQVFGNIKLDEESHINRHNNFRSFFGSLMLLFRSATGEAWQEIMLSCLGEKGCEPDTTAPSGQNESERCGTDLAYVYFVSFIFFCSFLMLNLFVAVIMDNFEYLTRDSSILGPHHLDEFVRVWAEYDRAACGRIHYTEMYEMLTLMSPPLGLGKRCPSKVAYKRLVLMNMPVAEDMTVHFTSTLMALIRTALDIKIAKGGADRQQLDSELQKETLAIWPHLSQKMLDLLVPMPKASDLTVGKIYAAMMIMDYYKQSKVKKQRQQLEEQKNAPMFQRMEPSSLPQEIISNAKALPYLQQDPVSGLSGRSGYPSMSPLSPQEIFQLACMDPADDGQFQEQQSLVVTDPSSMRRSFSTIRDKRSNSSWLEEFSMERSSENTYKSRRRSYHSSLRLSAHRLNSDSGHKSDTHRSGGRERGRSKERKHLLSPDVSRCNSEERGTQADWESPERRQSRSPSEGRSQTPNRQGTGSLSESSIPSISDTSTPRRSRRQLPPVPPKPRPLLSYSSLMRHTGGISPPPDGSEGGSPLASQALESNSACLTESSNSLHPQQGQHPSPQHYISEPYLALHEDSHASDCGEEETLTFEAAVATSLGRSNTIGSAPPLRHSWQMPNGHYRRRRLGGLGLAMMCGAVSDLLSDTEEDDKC
T1 sequence (P54290 25-1091 partner): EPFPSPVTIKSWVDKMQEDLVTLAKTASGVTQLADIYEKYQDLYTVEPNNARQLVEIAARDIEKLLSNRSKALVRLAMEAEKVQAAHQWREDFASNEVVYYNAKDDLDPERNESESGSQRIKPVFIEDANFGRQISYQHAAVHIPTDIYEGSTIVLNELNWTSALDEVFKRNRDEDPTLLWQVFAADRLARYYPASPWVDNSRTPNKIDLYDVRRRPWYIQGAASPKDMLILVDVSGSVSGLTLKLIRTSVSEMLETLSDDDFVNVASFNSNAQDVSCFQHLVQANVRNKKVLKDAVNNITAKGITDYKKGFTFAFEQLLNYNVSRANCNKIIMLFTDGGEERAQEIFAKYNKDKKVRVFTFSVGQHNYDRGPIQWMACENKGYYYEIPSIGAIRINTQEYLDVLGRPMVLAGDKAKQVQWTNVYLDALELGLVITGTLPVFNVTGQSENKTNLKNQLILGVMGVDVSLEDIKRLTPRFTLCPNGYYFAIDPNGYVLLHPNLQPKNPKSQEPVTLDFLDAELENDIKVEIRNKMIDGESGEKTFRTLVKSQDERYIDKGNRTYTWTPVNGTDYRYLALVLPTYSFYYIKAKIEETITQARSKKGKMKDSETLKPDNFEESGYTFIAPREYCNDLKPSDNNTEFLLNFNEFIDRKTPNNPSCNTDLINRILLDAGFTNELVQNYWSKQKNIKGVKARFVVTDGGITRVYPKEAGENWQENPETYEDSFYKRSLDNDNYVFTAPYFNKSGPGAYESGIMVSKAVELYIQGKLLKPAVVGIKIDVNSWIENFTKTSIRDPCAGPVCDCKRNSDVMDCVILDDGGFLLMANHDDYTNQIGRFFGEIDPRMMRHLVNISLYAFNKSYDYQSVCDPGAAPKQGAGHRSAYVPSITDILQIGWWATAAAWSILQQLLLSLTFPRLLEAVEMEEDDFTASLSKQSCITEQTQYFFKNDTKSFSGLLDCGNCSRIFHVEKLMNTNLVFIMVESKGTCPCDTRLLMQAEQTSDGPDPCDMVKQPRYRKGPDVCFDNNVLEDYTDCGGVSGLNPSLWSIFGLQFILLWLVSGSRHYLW
T1 sequence (P54287 whole entry partner): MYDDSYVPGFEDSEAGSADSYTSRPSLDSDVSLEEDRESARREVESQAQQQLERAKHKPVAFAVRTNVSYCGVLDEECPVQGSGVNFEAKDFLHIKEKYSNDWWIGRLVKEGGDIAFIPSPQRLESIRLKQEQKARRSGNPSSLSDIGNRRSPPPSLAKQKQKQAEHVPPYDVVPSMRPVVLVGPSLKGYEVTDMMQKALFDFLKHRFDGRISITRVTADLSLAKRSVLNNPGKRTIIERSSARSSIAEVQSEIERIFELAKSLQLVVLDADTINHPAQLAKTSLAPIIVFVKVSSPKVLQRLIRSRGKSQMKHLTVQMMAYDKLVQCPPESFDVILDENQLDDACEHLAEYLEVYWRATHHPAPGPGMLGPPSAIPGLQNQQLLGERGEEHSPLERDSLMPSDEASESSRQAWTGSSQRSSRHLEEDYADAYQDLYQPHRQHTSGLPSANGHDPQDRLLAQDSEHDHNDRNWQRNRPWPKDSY
Experimental: (§1) Recordings were obtained from acutely dissociated DRG neurons as described earlier (Bellampalli et al., 2019). Patch-clamp recordings were performed at room temperature (22-24° C.). Currents were recorded using an EPC 10 Amplifier-HEKA (HEKA Elektronik, Ludwigshafen, Germany) linked to a computer with Patchmaster software. DRG neurons were incubated overnight (˜16-24 hours) with 20 μM of CBD3063.
(§2) For total calcium current (ICa^2+) recordings, the external solution consisted of the following (in mM): 110 N-methyl-D-glucamine, 10 BaCl2, 30 TEA-Cl, 10 HEPES, 10 glucose, and 0.001 TTX (pH 7.29 adjusted with TEA-OH, and mOsm/L=310). Patch pipettes were filled with an internal solution containing (in mM): 150 CsCl2, 10 HEPES, 5 Mg-ATP, and 5 BAPTA, (pH 7.2 adjusted with CsOH, and mOsm/L-305). Peak Ca^2+ current was acquired by applying 200-millisecond voltage steps from −70 to +60 mV in 10-mV increments from a holding potential of −90 mV to obtain the current-voltage (I-V) relation. To measure the different subtypes of Ca^2+ channels, DRGs were treated with a Cav inhibitor cocktail omitting the inhibitor specific to the subtype being tested (e.g., to measure Cav2.2 currents, ω-conotoxin GVIA is omitted): Nifedipine (10 μM, L-type), ω-Conotoxin-GVIA (500 nM, […]) (Feng, et al., 2001), SNX482 (200 nM, R-type) (Newcomb et al., 1998), ω-agatoxin (200 nM, P/Q-type) (Mintz et al., 1992), TTA-P2 (1 μM, T-type) (Choe et al., 2011).
(§3) Normalization of currents to each cell's capacitance (pF) was performed to allow for collection of current density data. For I-V curves, functions were fitted to data using a non-linear least squares analysis. I-V curves were fitted using double Boltzmann functions:
(§4) where x is the pre-pulse potential, V1/2 is the mid-point potential, and k is the corresponding slope factor for single Boltzmann functions. Double Boltzmann fits were used to describe the shape of the curve, not to imply the existence of separate channel populations. Numbers 1 and 2 simply indicate first and second mid-points; a along with g are fitting parameters.
(§5) Activation curves were obtained from the I-V curves by dividing the peak current at each depolarizing step by the driving force according to the equation: G=I/(Vmem-Erev), where I is the peak current, Vmem is the membrane potential and Erev is the reversal potential. The conductance (G) was normalized against the maximum conductance (Gmax). For total and the different subtypes of Ca^2+ currents, steady-state inactivation (SSI) curves were obtained by applying an H-infinity protocol that consisted of 1.5-seconds conditioning pre-pulses from −100 to +30 mV in 10-mV increments followed by a 20-millisecond test pulse to +10 mV. For Na^+ currents, SSI curves were obtained by applying an H-infinity protocol that consisted of 1-second conditioning pre-pulses from −120 to +10 mV in 10-mV increments followed by a 200-millisecond test pulse to +10 mV. Inactivation curves were obtained by dividing the peak current recorded at the test pulse by the maximum current (Imax). Activation and SSI curves were fitted with the Boltzmann equation.

[3] = system: Cav3 (T-type) calcium channels; assay: Whole-cell patch-clamp, isolated T-type Ca2+ currents in DRG neurons; assay type: cell-based, rat
Experimental: as §1, §2, §3, §4, §5

[4] = system: Cav1 (L-type) calcium channels; assay: Whole-cell patch-clamp, isolated L-type Ca2+ currents in DRG neurons; assay type: cell-based, rat
Experimental: as §1, §2, §3, §4, §5

[5] = biological target: T2, Cav2.1 (P/Q-type) calcium channels (Rattus norvegicus, UniProt P54282); assay: Whole-cell patch-clamp, isolated P/Q-type Ca2+ currents in DRG neurons; assay type: cell-based
T2 construct: Recordings were obtained from acutely dissociated DRG neurons; endogenous in cells; host or cells: acutely dissociated rat DRG neurons
Experimental: as §1, §2, §3, §4, §5

[6] = 20 μM overnight, mean ± SEM (n cells)

CC(=O)N[C@@H]1CCCN(C(=O)NCCCNc2ccccn2)C1 [CBD3063, (3R)-3-acetamido-N-[3-(pyridin-2-ylamino)propyl]piperidine-1-carboxamide]
expression of phosphorylated CRMP2 at site 514 (GSK-3β) [1]: no differences | expression of phosphorylated CRMP2 at site 522 (Cdk5) [1]: no differences | expression of phosphorylated CRMP2 at site 555 (RhoK) [1]: no differences | effect on Ca2+ influx through Cav2.3 (R-type) channels (current density-voltage curve, peak current density) ([2]; 20 μM overnight vs 0.1% DMSO): does not alter | R-type Ca2+ currents, activation V1/2 [2, 6]: −4.098 ± 0.693 (11) mV | R-type Ca2+ currents, activation k (slope factor) [2, 6]: 7.244 ± 0.579 (11) | R-type Ca2+ currents, inactivation V1/2 [2, 6]: −16.840 ± 2.186 (11) mV | R-type Ca2+ currents, inactivation k (slope factor) [2, 6]: −11.870 ± 1.850 (11) | effect on Ca2+ influx through Cav3 (T-type) channels (current density-voltage curve, peak current density) ([3]; 20 μM overnight vs 0.1% DMSO): does not alter | T-type Ca2+ currents, activation V1/2 [3, 6]: −10.982 ± 1.992 (10) mV | T-type Ca2+ currents, activation k (slope factor) [3, 6]: 9.924 ± 1.628 (10) | T-type Ca2+ currents, inactivation V1/2 [3, 6]: −35.122 ± 2.752 (10) mV | T-type Ca2+ currents, inactivation k (slope factor) [3, 6]: −12.929 ± 2.490 (10) | effect on Ca2+ influx through Cav1 (L-type) channels (current density-voltage curve, peak current density) ([4]; 20 μM overnight vs 0.1% DMSO): does not alter | L-type Ca2+ currents, activation V1/2 [4, 6]: −2.704 ± 0.710 (7) mV | L-type Ca2+ currents, activation k (slope factor) [4, 6]: 5.528 ± 0.615 (7) | L-type Ca2+ currents, inactivation V1/2 [4, 6]: −10.128 ± 2.133 (7) mV | L-type Ca2+ currents, inactivation k (slope factor) [4, 6]: −4.961 ± 1.976 (7) | effect on Ca2+ influx through Cav2.1 (P/Q-type) channels (current density-voltage curve, peak current density) ([5]; 20 μM overnight vs 0.1% DMSO): does not alter | P/Q-type Ca2+ currents, activation V1/2 [5, 6]: −3.265 ± 0.824 (7) mV | P/Q-type Ca2+ currents, activation k (slope factor) [5, 6]: 4.186 ± 0.663 (7) | P/Q-type Ca2+ currents, inactivation V1/2 [5, 6]: −18.667 ± 1.688 (7) mV | P/Q-type Ca2+ currents, inactivation k (slope factor) [5, 6]: −9.396 ± 1.470 (7)
